PubChem BioAssay (NCI)
“And” between values parts separate entries of the source, which are not always exact repeats. Equal entries are not always repeated.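 Five compound concentrations were applied to cells in 96-well plates for 48 hours; endpoints were derived by simple linear interpolation of the resulting dose-response curve. The concentration for 50% growth inhibition is given as GI50. TGI: concentration producing complete growth inhibition.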

Columns and labels:
Assay in all cases: NCI-60 cell line screen, 48 h
[1] = system: KM12 colon
[2] = system: UACC-257 melanoma
[3] = system: NCI-H23 lung
[4] = system: UO-31 renal
[5] = system: HCT-116 colon
[6] = system: DU-145 prostate
[7] = system: SR leukemia
[8] = system: BT-549 breast
[9] = system: SN12C renal
[10] = system: 786-0 renal

Row | Compound | GI50 [1] | TGI [1] | GI50 [2] [µM] | TGI [2] | GI50 [3] [µM] | TGI [3] [µM] | GI50 [4] [µM] | TGI [4] [µM] | GI50 [5] [µM] | TGI [5] | GI50 [6] [µM] | TGI [6] [µM] | GI50 [7] [µM] | TGI [7] | GI50 [8] [µM] | TGI [8] | GI50 [9] [µM] | TGI [9] [µM] | GI50 [10] [µM] | TGI [10] [µM]
1 | CNCCN(C)Cc1cn[nH]c1-c1ccc(OC2CC(OCCC3CCOCC3)C2)cc1 (stereo unspecified) | > 83.9 µM | > 100 µM | 61.6 | > 100 µM | > 91.7 | > 100 | 28 | > 100 | > 67.9 | > 100 µM | > 100 | > 100 | 25.9 | > 100 µM | 54.2 | > 100 µM | > 100 | > 100 | > 100 | > 100
2 | O=c1c2cc(O)c(O)cc2oc2cc(O)c(C3OC(CO)C(O)C(O)C3O)c(O)c12 (stereo unspecified) | – | > 100 µM | – | > 100 µM | – | > 100 | – | > 100 | – | > 100 µM | – | – | – | > 100 µM | – | > 100 µM | – | – | – | > 100
3 | CCCc1n(Cc2ccc3ccccc3n2)cc[n+]1Cc1ccc2ccccc2n1 | 0.991 µM | 11.9 µM | 0.778 | 4.84 µM | 0.819 | 14.2 | 16.5 | 73.9 | 2.81 | 13.1 µM | 4.22 | 31.2 | 0.635 | 12.7 µM | 1.3 | 8 µM | 2.23 | 11.8 | 11.2 | 24.2
4 | C#Cc1ccc(-n2c(/C=C/c3ccc4ccccc4c3)nc3ncccc3c2=O)cc1 | 2.95 µM | > 100 µM | – | – | 6.39 | > 100 | 3.11 | > 100 | – | – | 7.45 | > 100 | 1.4 | > 100 µM | 1.98 | 5.45 µM | 3.29 | > 100 | 4.08 | > 100
5 | CCCCCCSc1nc(COC(=O)NC)c(COC(=O)NC)n1C | – | > 100 µM | – | > 100 µM | – | > 100 | – | > 100 | – | > 100 µM | – | > 100 | – | > 100 µM | – | > 100 µM | – | > 100 | – | > 100
6 | CCN(CCO)CCCOc1ccc2c(Nc3cc(CC(=O)Nc4cccc(F)c4)[nH]n3)ncnc2c1 | 3.45 µM and 0.82 µM | 16 µM and > 10 µM | 12.4 | 29.2 µM and > 2.56 µM | 17.4 | > 53.1 | > 100 | > 100 | 9.63 | 34.6 µM and > 10 µM | 34.5 | > 100 | – | 28 µM and > 3.87 µM | 13 | 29.7 µM and > 3.6 µM | 19.8 | > 100 | > 70.1 | > 100
7 | COc1ccc(/C=C2/CN(CCC#N)C/C(=C\c3ccc(OC)cc3)C2=O)cc1 | 1.72 µM | 3.83 µM | 2.63 | 7.44 µM | 3.34 | 19.8 | 1.74 | 4.86 | 0.829 | 2.38 µM | 4.25 | > 100 | 1.07 | > 100 µM | 2.1 | 4.73 µM | 2.18 | 6.31 | 1.99 | 4.33
8 | COC(=O)C1(C)CCCC2(C)c3cc(OC)ccc3C(=O)C(Br)C12 (stereo unspecified) | – | > 10 µM | – | > 10 µM | – | > 10 | – | 3.28 | – | 7.23 µM | – | > 10 | – | > 10 µM | – | > 10 µM | – | > 10 | – | 4.21
9 | Cc1cn2c(/C=C3/C(=O)Nc4ccc(Cl)cc43)c(C)nc2s1 | 1.17 µM | 24 µM | 12.9 | > 100 µM | 0.0454 | 0.37 | 15.6 | > 100 | < 0.0238 | 25.3 µM | 0.84 | > 39.3 | – | > 100 µM | 5.94 | 97.1 µM | – | 65 | < 0.0403 | 31.1
10 | CC[C@@]1(O)C(=O)NCc2c1cc1n(c2=O)Cc2cc3c(NC(C)=O)cccc3nc2-1 | > 100 µM | > 100 µM | > 100 | > 100 µM | > 100 | > 100 | > 100 | > 100 | > 100 | > 100 µM | > 100 | > 100 | > 100 | > 100 µM | > 100 | > 100 µM | > 100 | > 100 | > 100 | > 100
11 | Cn1cc(C2=C(c3c(S(C)=O)n(C)c4ccccc34)C(=O)NC2=O)c2ccccc21 (stereo unspecified) | 7.9 µM | > 25 µM | > 25 | > 25 µM | 9.79 | > 25 | 3.89 | > 25 | 8.57 | > 25 µM | 8.9 | > 25 | 2.55 | 24.3 µM | 4.88 | > 25 µM | 14 | > 25 | > 19.9 | > 25
12 | COC(=O)[C@]12CC[C@@H](C)[C@H](C)[C@@H]1C1=CC[C@@H]3[C@@]4(C)CC(=O)[C@H](O)[C@@](C)(CO)[C@@H]4C(=O)C[C@@]3(C)[C@]1(C)CC2 | 10.8 µM | 23.6 µM | 16.8 | 31.7 µM | 13.9 | 31.1 | 5.7 | 23.4 | 10.9 | 23.3 µM | 11.2 | 23.6 | 5.95 | 27.1 µM | 11.3 | 23.5 µM | 12.4 | 27.3 | 12.4 | 25.4
13 | O=C(/C=C/c1ccccc1)OCC1=C[C@@H](O)[C@@H]2C=CO[C@@H](OC3OC(CO)C(O)C(O)C3O)[C@H]12 (stereo partly specified) | – | > 100 µM | – | > 100 µM | – | > 100 | – | > 100 | – | > 100 µM | – | > 100 | – | > 100 µM | – | > 100 µM | – | > 100 | – | > 100
14 | COc1cc(NC(=O)c2ccccc2Nc2ccnc(C(F)(F)F)c2)cc(OC)c1OC | 54.9 µM | > 100 µM | 88.2 | > 100 µM | 44 | > 100 | 19.8 | 92.1 | 49.6 | > 100 µM | 95.4 | > 100 | 47.3 | > 100 µM | 43.5 | > 100 µM | 52.9 | > 100 | > 100 | > 100
